This passage reports IC50 results from patent US10202370B2, “Benzimidazole derivatives as selective proteine kinase inhibitors” (AB SCIENCE, priority 2013, dated 2019).

c-kit WT, sequence (P10721 26-976): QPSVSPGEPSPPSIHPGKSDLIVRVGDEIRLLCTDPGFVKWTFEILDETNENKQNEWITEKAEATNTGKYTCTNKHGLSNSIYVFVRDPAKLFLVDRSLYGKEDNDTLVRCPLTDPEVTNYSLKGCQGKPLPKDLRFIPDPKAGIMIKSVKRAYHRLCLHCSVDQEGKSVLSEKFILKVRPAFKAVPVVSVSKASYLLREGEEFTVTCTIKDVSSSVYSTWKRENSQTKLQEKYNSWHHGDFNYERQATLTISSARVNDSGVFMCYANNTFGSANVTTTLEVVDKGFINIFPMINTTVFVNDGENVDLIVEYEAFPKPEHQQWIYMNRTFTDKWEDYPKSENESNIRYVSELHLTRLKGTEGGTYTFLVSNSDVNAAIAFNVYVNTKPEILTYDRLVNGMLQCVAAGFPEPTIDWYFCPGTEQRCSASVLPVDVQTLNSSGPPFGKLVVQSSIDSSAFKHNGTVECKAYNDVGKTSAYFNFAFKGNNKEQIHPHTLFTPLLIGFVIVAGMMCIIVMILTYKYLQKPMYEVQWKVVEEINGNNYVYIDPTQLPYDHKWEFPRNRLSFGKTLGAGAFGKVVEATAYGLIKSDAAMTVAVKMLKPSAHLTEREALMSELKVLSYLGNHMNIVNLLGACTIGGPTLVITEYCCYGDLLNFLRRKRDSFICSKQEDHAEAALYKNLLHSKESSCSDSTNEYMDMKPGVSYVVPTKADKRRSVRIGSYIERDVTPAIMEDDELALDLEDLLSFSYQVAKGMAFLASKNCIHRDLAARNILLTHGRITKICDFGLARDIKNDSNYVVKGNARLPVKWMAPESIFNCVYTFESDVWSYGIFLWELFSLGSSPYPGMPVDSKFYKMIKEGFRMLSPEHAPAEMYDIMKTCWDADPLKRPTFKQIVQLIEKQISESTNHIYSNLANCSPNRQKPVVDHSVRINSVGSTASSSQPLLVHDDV

This assay has as its target c-kit WT (Homo sapiens (Human), UniProt P10721). Kind of assay: Proliferation assay (CellTiter-Blue) on BaF3 Kit WT cell line. The settings on record: BaF3 Kit WT cell line (murine Ba/F3 expressing Human Kit WT, with murine SCF), 48 hours. It is filed as cell-based. The method, boiled down:
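Ba/F3 cells expressing human Kit WT, maintained in RPMI/10% FCS with 250 ng/ml murine SCF, were seeded at 2.10^4 cells/well and exposed to ½ serial dilutions (0–10 μM) for 48 h at 37° C. Viability was measured by CellTiter-Blue fluorescence (544Ex/590Em, 4 h) in triplicate as % of untreated proliferation.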
What is called IC50 is the concentration at which inhibition is half-maximal. Low values mean inhibition by little substance, high ones a need for much substance. In the case of `Cc1ccc(-c2nc3cc(Nc4nc(-c5ccncc5)cs4)c(C)cc3[nH]2)s1` [Compound 079, [6-Methyl-2-(5-methyl-thiophen-2-yl)-1H-benzoimidazol-5-yl]-(4-pyridin-4-yl-thiazol-2-yl)-amine], the IC50 is at most 1000 nM. Next, `Cc1cc2nc(-c3cccc(Cl)c3)[nH]c2cc1Nc1nc(-c2cccnc2)cs1` [Compound 032, [2-(3-Chloro-phenyl)-6-methyl-3H-benzoimidazol-5-yl]-(4-pyridin-3-yl-thiazol-2-yl)-amine]: at most 1000 nM; `Cc1cc2nc(Cc3cccc(C(F)(F)F)c3)[nH]c2cc1Nc1ncc(-c2ccncc2)o1` [Compound 051, [6-Methyl-2-(3-trifluoromethyl-benzyl)-3H-benzoimidazol-5-yl]-(5-pyridin-4-yl-oxazol-2-yl)-amine]: 1000 to 10000 nM.

In the case of `Cc1cccc(-c2nc3cc(Nc4nc(-c5ccc(C#N)cc5)cs4)c(C)cc3n2C)c1` [Compound 112, 4-[2-(1,6-Dimethyl-2-m-tolyl-1H-benzoimidazol-5-ylamino)-thiazol-4-yl]-benzonitrile], the 50% inhibitory concentration (IC50) is at most 1000 nM.

`Cc1cc2c(cc1Nc1nc(-c3ccncc3)cs1)nc(-c1cccc(N3CCN(C)CC3)c1)n2C` [Compound 096, {1,6-Dimethyl-2-[3-(4-methyl-piperazin-1-yl)-phenyl]-1H-benzoimidazol-5-yl}-(4-pyridin-4-yl-thiazol-2-yl)-amine] yielded an IC50 of 1000 to 10000 nM. Next, `Cc1cc2nc(-c3cccc(C(F)(F)F)c3)[nH]c2cc1Nc1nc(-c2ccc(C#N)cc2)cs1` [Compound 070, 4-{2-[6-Methyl-2-(3-trifluoromethyl-phenyl)-3H-benzoimidazol-5-ylamino]-thiazol-4-yl}-benzonitrile]: at most 1000 nM; `Cc1cc2nc(-c3cccc(C(F)(F)F)c3)[nH]c2cc1Nc1nc(-c2cccnc2)cs1` [Compound 005, [6-Methyl-2-(3-trifluoromethyl-phenyl)-3H-benzoimidazol-5-yl]-(4-pyridin-3-yl-thiazol-2-yl)-amine]: at most 1000 nM; `Cc1cc2nc(Cc3cccc(F)c3)[nH]c2cc1Nc1ncc(-c2ccncc2)o1` [Compound 052, [2-(3-Fluoro-benzyl)-6-methyl-3H-benzoimidazol-5-yl]-(5-pyridin-4-yl-oxazol-2-yl)-amine]: 1000 to 10000 nM. Next, `Cc1cc2nc(-c3cccc(CN4CCN(C)CC4)c3)[nH]c2cc1Nc1nccc(-c2cccnc2)n1` [Compound 043, {6-Methyl-2-[3-(4-methyl-piperazin-1-ylmethyl)-phenyl]-3H-benzoimidazol-5-yl}-(4-pyridin-3-yl-pyrimidin-2-yl)-amine]: 1000 to 10000 nM. Next, `Cc1cc2[nH]c(-c3cncn3C)nc2cc1Nc1nc(-c2ccncc2)cs1` [Compound 080, [6-Methyl-2-(3-methyl-3H-imidazol-4-yl)-1H-benzoimidazol-5-yl]-(4-pyridin-4-yl-thiazol-2-yl)-amine]: 1000 to 10000 nM; `Cc1cc2nc(-c3cncc(C(F)(F)F)c3)[nH]c2cc1Nc1nc(-c2cccnc2)cs1` [Compound 049, [6-Methyl-2-(5-trifluoromethyl-pyridin-3-yl)-3H-benzoimidazol-5-yl]-(4-pyridin-3-yl-thiazol-2-yl)-amine]: at most 1000 nM. Turning to `Cc1cc2nc(-c3cccc(C#N)c3)[nH]c2cc1Nc1nc(-c2cccnc2)cs1` [Compound 010, 3-[5-Methyl-6-(4-pyridin-3-yl-thiazol-2-ylamino)-1H-benzoimidazol-2-yl]-benzonitrile], the IC50 was at most 1000 nM.

For `Cc1cc2[nH]c(-c3ccc(C(F)F)cc3)nc2cc1Nc1nc(-c2cccnc2)cs1` [Compound 097, [2-(4-Difluoromethyl-phenyl)-6-methyl-1H-benzoimidazol-5-yl]-(4-pyridin-3-yl-thiazol-2-yl)-amine], the half-inhibitory concentration (IC50) was at most 1000 nM. Next, `Cc1cc2nc(-c3ccc(-n4cccn4)cc3)[nH]c2cc1Nc1nc(-c2cccnc2)cs1` [Compound 057, [6-Methyl-2-(4-pyrazol-1-yl-phenyl)-3H-benzoimidazol-5-yl]-(4-pyridin-3-yl-thiazol-2-yl)-amine]: at most 1000 nM; `Cc1cc2c(cc1Nc1nc(-c3ccc(C#N)cc3)cs1)nc(-c1cccc(C(C)(C)C)c1)n2C` [Compound 144, 4-{2-[2-(3-tert-Butyl-phenyl)-1,6-dimethyl-1H-benzoimidazol-5-ylamino]-thiazol-4-yl}-benzonitrile]: at most 1000 nM; `Cc1cc2nc(-c3cccc(Cl)c3)[nH]c2cc1Nc1nccc(-c2cccnc2)n1` [Compound 031, [2-(3-Chloro-phenyl)-6-methyl-3H-benzoimidazol-5-yl]-(4-pyridin-3-yl-pyrimidin-2-yl)-amine]: at most 1000 nM.

Consider `Cc1cc2c(cc1Nc1nc(-c3cccnc3)cs1)nc(-c1cccc(C(F)(F)F)c1)n2C` [Compound 085, [1,6-Dimethyl-2-(3-trifluoromethyl-phenyl)-1H-benzoimidazol-5-yl]-(4-pyridin-3-yl-thiazol-2-yl)-amine], for which the IC50 is at most 1000 nM. Next, `Cc1cc2[nH]c(-c3cccc(C(C)C)c3)nc2cc1Nc1nc(-c2ccc(C#N)cc2)cs1` [Compound 143, 4-{2-[2-(3-Isopropyl-phenyl)-6-methyl-1H-benzoimidazol-5-ylamino]-thiazol-4-yl}-benzonitrile]: at most 1000 nM. Next, `Cc1cc2c(cc1Nc1nc(-c3ccncc3)cs1)nc(-c1cccc(C(C)C)c1)n2C` [Compound 151, [2-(3-Isopropyl-phenyl)-1,6-dimethyl-1H-benzoimidazol-5-yl]-(4-pyridin-4-yl-thiazol-2-yl)-amine]: at most 1000 nM; `Cc1cc2nc(CN3CCOCC3)[nH]c2cc1Nc1nc(-c2cccnc2)cs1` [Compound 064, (6-Methyl-2-morpholin-4-ylmethyl-3H-benzoimidazol-5-yl)-(4-pyridin-3-yl-thiazol-2-yl)-amine]: 1000 to 10000 nM. Next, `Cc1cc2[nH]c(-c3cccc(S(C)(=O)=O)c3)nc2cc1Nc1nc(-c2ccc(C#N)cc2)cs1` [Compound 131, 4-{2-[2-(3-Methanesulfonyl-phenyl)-6-methyl-1H-benzoimidazol-5-ylamino]-thiazol-4-yl}-benzonitrile]: at most 1000 nM; `Cc1cc2[nH]c(-c3cccc(C(F)F)c3)nc2cc1Nc1nc(-c2ccnc(Cl)c2)cs1` [Compound 108, [4-(2-Chloro-pyridin-4-yl)-thiazol-2-yl]-[2-(3-difluoromethyl-phenyl)-6-methyl-1H-benzoimidazol-5-yl]-amine]: at most 1000 nM.

As to `Cc1cc2nc(-c3cccc(C(F)(F)F)c3)[nH]c2cc1Nc1nc(-c2ccncc2)cs1` [Compound 033, [6-Methyl-2-(3-trifluoromethyl-phenyl)-3H-benzoimidazol-5-yl]-(4-pyridin-4-yl-thiazol-2-yl)-amine], the half-inhibitory concentration (IC50) is at most 1000 nM.

Take `Cc1cccc(-c2nc3cc(Nc4nc(-c5cccc(C#N)c5)cs4)c(C)cc3[nH]2)c1` [Compound 129, 3-[2-(6-Methyl-2-m-tolyl-1H-benzoimidazol-5-ylamino)-thiazol-4-yl]-benzonitrile]: the IC50 was at most 1000 nM. Compound `Cc1cc2nc(-c3cccc(C(F)F)c3)[nH]c2cc1Nc1nc(-c2ccncc2)cs1` [Compound 045, [2-(3-Difluoromethyl-phenyl)-6-methyl-3H-benzoimidazol-5-yl]-(4-pyridin-4-yl-thiazol-2-yl)-amine] displayed a half-inhibitory concentration (IC50) of at most 1000 nM.
